Tests used:
rice blast = assay: microbe, parasite or virus in culture; assay type: cell-based; settings: Pyricularia oryzae; for inhibition at 25 ppm: read-out: inhibition rate against rice blast, 25 ppm, in vitro
cucumber gray mold = assay: fungicidal activity in vitro (inhibition rate) against cucumber gray mold; assay type: cell-based; settings: 25 ppm, in vitro; read-out: inhibition rate against cucumber gray mold
Diamond back moth = assay: insecticidal activity against diamond back moth, airbrush spray; assay type: in vivo; settings: 72 h; for pest or weed control at 600 µg/mL: 600 mg/L; for pest or weed control at 10 µg/mL: 10 mg/L; for pest or weed control at 100 µg/mL: 100 mg/L
Procedure, shortened: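 Airbrush leaf-disc spray test: both faces of 2 cm cabbage discs received 0.5 ml of test solution at 0.7 kg/cm^2. Solutions were made in acetone:methanol (1:1) and brought to concentration with 0.1% Tween 80 in water. Ten second-instar larvae per disc, triplicates, were held at 25° C and 60˜70% R.H., with mortality recorded at 72 hrs.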

armyworm = assay: bioactivity test against armyworm, airbrush spray; assay type: in vivo; settings: 72 h; for pest or weed control at 600 µg/mL: 600 mg/L; for pest or weed control at 600 ppm: mortality after 72 h
[1] = system: Green peach aphids (Myzus Persicae Sulzer); assay: bioactivity test against green peach aphid, airbrush foliar spray; assay type: in vivo; settings: for pest or weed control at 600 µg/mL: 600 mg/L; for pest or weed control at 10 µg/mL: 10 mg/L; for pest or weed control at 100 µg/mL: 100 mg/L; for pest or weed control at 5 µg/mL: 5 mg/L
Procedure, shortened: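 Aphids (15-30 per cabbage leaf disc) on moist filter paper were airbrush-sprayed at 10 psi, 0.5 mL, with compound from acetone:methanol (1:1) diluted in water with 0.1% tween 80. Held at 25±1 C, 60±5% RH; survivors counted after 48 hrs to give death rates.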

carmine spider mite = assay: bioactivity test against carmine spider mite, airbrush spray; assay type: in vivo; settings: for pest or weed control at 600 µg/mL: 600 mg/L; for pest or weed control at 100 µg/mL: 100 mg/L
Procedure, shortened: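 Broadbean seedlings infested with adult mites were sprayed with compound (acetone/methanol stock diluted in 0.1% Tween 80 water) by airbrush at 0.7 kg/cm^2, 0.5 ml. Three replicates were run. Mortality was scored after 72 hrs.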

corn rust = assay: protectant activity in vivo against corn rust; settings: Zea mays, 168 h; for pest or weed control at 400 µg/mL: read-out: control effect against corn rust (%), 400 mg/L; for pest or weed control at 25 ppm: read-out: protectant activity against corn rust in vivo, 25 ppm; for pest or weed control at 100 ppm: read-out: protectant activity against corn rust in vivo, 100 ppm; for pest or weed control at 400 ppm: read-out: protectant activity against corn rust in vivo, 400 ppm
wheat powdery mildew = assay: protectant activity in vivo against wheat powdery mildew; settings: Triticum aestivum, 168 h; for pest or weed control at 400 µg/mL: read-out: control effect against wheat powdery mildew (%), 400 mg/L, protectant activity; for pest or weed control at 100 ppm: read-out: protectant activity against wheat powdery mildew in vivo, 100 ppm; for pest or weed control at 400 ppm: read-out: protectant activity against wheat powdery mildew in vivo, 400 ppm
cucumber downy mildew = assay: protectant activity in vivo against cucumber downy mildew; settings: Cucumis sativus, 168 h; for pest or weed control at 400 µg/mL: read-out: control effect against cucumber downy mildew (%), 400 mg/L; for pest or weed control at 25 µg/mL: read-out: control effect against cucumber downy mildew (%), 25 mg/L; for pest or weed control at 50 µg/mL: read-out: control effect against cucumber downy mildew (%), 50 mg/L; for pest or weed control at 100 µg/mL: read-out: control effect against cucumber downy mildew (%), 100 mg/L; for pest or weed control at 100 ppm: read-out: protectant activity against cucumber downy mildew in vivo, 100 ppm; for pest or weed control at 400 ppm: read-out: protectant activity against cucumber downy mildew in vivo, 400 ppm
[2] = read-out: Insecticidal activity against armyworm (%)
[3] = Myzus persicae, foliar, 48 h, contrastive test, read-out: Insecticidal activity against peach aphid (%)
[4] = Tetranychus cinnabarinus, 72 h, contrastive test, read-out: Insecticidal activity against carmine spider mite (% )
[5] = mortality after 72 hrs, read-out: control (test results against diamond back moth)
[6] = Myzus persicae, foliar, 48 h, death rate after 48 hrs
[7] = Tetranychus cinnabarinus, 72 h, mortality after 72 hrs

Cc1ncnc(NCc2ccc(Oc3nc(Cl)c(Cl)cc3Cl)cc2)c1Cl [CK33, reference compound]
inhibition at 25 ppm (rice blast): < 50%
inhibition at 25 ppm (cucumber gray mold): 0%
pest or weed control at 600 µg/mL (Diamond back moth): 29%
pest or weed control at 10 µg/mL (armyworm; 10 mg/L, read-out: Insecticidal activity against armyworm (%)): 0%
pest or weed control at 100 µg/mL (armyworm; 100 mg/L, read-out: Insecticidal activity against armyworm (%)): 0%
pest or weed control at 600 µg/mL (armyworm; [2]): 100%
pest or weed control at 600 µg/mL [1, 3]: 0%
pest or weed control at 600 µg/mL (carmine spider mite; [4]): 41%
pest or weed control at 400 µg/mL (corn rust; protectant activity): 0%
pest or weed control at 400 µg/mL (wheat powdery mildew): 0%
pest or weed control at 400 µg/mL (cucumber downy mildew; protectant activity): 0%

Cc1ncnc(NC(=O)Cc2ccc(Oc3ncc(C(F)(F)F)cc3Cl)cc2)c1Cl [CK60, reference compound]
inhibition at 25 ppm (rice blast): 0%
inhibition at 25 ppm (cucumber gray mold): 0%
pest or weed control at 10 µg/mL (Diamond back moth): 15%
pest or weed control at 100 µg/mL (Diamond back moth): 25%
pest or weed control at 600 µg/mL (Diamond back moth): 86%
pest or weed control at 600 µg/mL (armyworm; [2]): 0%
pest or weed control at 10 µg/mL [1, 3]: 0%
pest or weed control at 100 µg/mL [1, 3]: 0%
pest or weed control at 600 µg/mL [1, 3]: 81%
pest or weed control at 600 µg/mL (carmine spider mite; [4]): 0%
pest or weed control at 400 µg/mL (corn rust; protectant activity): 0%
pest or weed control at 400 µg/mL (wheat powdery mildew): 0%
pest or weed control at 25 µg/mL (cucumber downy mildew; protectant activity): 0%
pest or weed control at 50 µg/mL (cucumber downy mildew; protectant activity): 0%
pest or weed control at 100 µg/mL (cucumber downy mildew; protectant activity): 10%
pest or weed control at 400 µg/mL (cucumber downy mildew; protectant activity): 100%

CCc1ncnc(NCCc2ccc(Oc3ccc(C(F)(F)F)cc3)cc2)c1Cl [II-347]
inhibition at 25 ppm (rice blast): 80 to 99%
inhibition at 25 ppm (cucumber gray mold): 80 to 99%
pest or weed control at 10 µg/mL (Diamond back moth): 65%
pest or weed control at 100 µg/mL (Diamond back moth): 70%
pest or weed control at 600 µg/mL (Diamond back moth): 100%
pest or weed control at 600 ppm (Diamond back moth; [5]): 100%
pest or weed control at 600 ppm (armyworm): 100%
control (test results against green peach aphid) ([1]; 2.5 ppm, death rate after 48 hrs): 100%
pest or weed control at 1.25 µg/mL ([1]; Myzus persicae, foliar, 48 h, 1.25 mg/L, contrastive test, read-out: Insecticidal activity against peach aphid (%)): 81%
pest or weed control at 2.5 µg/mL ([1]; Myzus persicae, foliar, 48 h, 2.5 mg/L, contrastive test, read-out: Insecticidal activity against peach aphid (%)): 100%
pest or weed control at 5 µg/mL [1, 3]: 100%
pest or weed control at 10 µg/mL [1, 3]: 100%
pest or weed control at 100 µg/mL [1, 3]: 100%
pest or weed control at 600 µg/mL [1, 3]: 100%
pest or weed control at 5 ppm ([1]; Myzus persicae, foliar, 48 h, 5 ppm, death rate after 48 hrs): 100%
pest or weed control at 10 ppm [1, 6]: 100%
pest or weed control at 100 ppm [1, 6]: 100%
pest or weed control at 600 ppm [1, 6]: 100%
Insecticidal activity against carmine spider mite (% ) (carmine spider mite; 2.5 mg/L): 75%
Insecticidal activity against carmine spider mite (% ) (carmine spider mite; 5 mg/L): 90%
pest or weed control at 10 µg/mL (carmine spider mite; Tetranychus cinnabarinus, 72 h, 10 mg/L, contrastive test, read-out: Insecticidal activity against carmine spider mite (% )): 100%
pest or weed control at 100 µg/mL (carmine spider mite; [4]): 100%
pest or weed control at 600 µg/mL (carmine spider mite; [4]): 100%
pest or weed control at 10 ppm (carmine spider mite; Tetranychus cinnabarinus, 72 h, 10 ppm, mortality after 72 hrs): 100%
pest or weed control at 100 ppm (carmine spider mite; [7]): 100%
pest or weed control at 600 ppm (carmine spider mite; [7]): 100%
pest or weed control at 6.25 ppm (corn rust; read-out: protectant activity against corn rust in vivo, 6.25 ppm): 80 to 99%
pest or weed control at 25 ppm (corn rust): 80 to 99%
pest or weed control at 100 ppm (corn rust): 100%
pest or weed control at 400 ppm (corn rust): 100%
pest or weed control at 25 ppm (wheat powdery mildew; read-out: protectant activity against wheat powdery mildew in vivo, 25 ppm): 100%
pest or weed control at 100 ppm (wheat powdery mildew): 100%
pest or weed control at 400 ppm (wheat powdery mildew): 100%
pest or weed control at 100 ppm (cucumber downy mildew): 80 to 99%
pest or weed control at 400 ppm (cucumber downy mildew): 100%

Cc1ncnc(NCCc2ccc(Oc3ccc(Cl)cc3)nc2)c1Cl [III-7]
inhibition at 0.1 ppm (rice blast; read-out: inhibition rate against rice blast, 0.1 ppm, in vitro): 100%
inhibition at 0.3 ppm (rice blast; read-out: inhibition rate against rice blast, 0.3 ppm, in vitro): 100%
inhibition at 0.9 ppm (rice blast; read-out: inhibition rate against rice blast, 0.9 ppm, in vitro): 100%
inhibition at 2.8 ppm (rice blast; read-out: inhibition rate against rice blast, 2.8 ppm, in vitro): 100%
inhibition at 8.3 ppm (rice blast; read-out: inhibition rate against rice blast, 8.3 ppm, in vitro): 100%
inhibition at 25 ppm (rice blast): 100%
inhibition at 25 ppm (cucumber gray mold): 80 to 99%
pest or weed control at 100 ppm (Diamond back moth; 100 ppm, mortality after 72 hrs, read-out: control (test results against diamond back moth)): 80 to 99%
pest or weed control at 600 ppm (Diamond back moth; [5]): 100%
pest or weed control at 600 ppm (armyworm): 100%
pest or weed control at 5 µg/mL [1, 3]: 88%
pest or weed control at 10 µg/mL [1, 3]: 90%
pest or weed control at 100 µg/mL [1, 3]: 100%
pest or weed control at 600 µg/mL [1, 3]: 100%
pest or weed control at 10 ppm [1, 6]: 80 to 99%
pest or weed control at 100 ppm [1, 6]: 100%
pest or weed control at 600 ppm [1, 6]: 100%
pest or weed control at 100 µg/mL (carmine spider mite; [4]): 100%
pest or weed control at 600 µg/mL (carmine spider mite; [4]): 100%
pest or weed control at 100 ppm (carmine spider mite; [7]): 100%
pest or weed control at 600 ppm (carmine spider mite; [7]): 100%
pest or weed control at 25 µg/mL (corn rust; read-out: control effect against corn rust (%), 25 mg/L, protectant activity): 100%
pest or weed control at 100 µg/mL (corn rust; read-out: control effect against corn rust (%), 100 mg/L, protectant activity): 100%
pest or weed control at 400 µg/mL (corn rust; protectant activity): 100%
pest or weed control at 25 ppm (corn rust): 100%
pest or weed control at 100 ppm (corn rust): 100%
pest or weed control at 400 ppm (corn rust): 100%
pest or weed control at 100 ppm (wheat powdery mildew): 80 to 99%
pest or weed control at 400 ppm (wheat powdery mildew): 100%
pest or weed control at 3.125 µg/mL (cucumber downy mildew; read-out: control effect against cucumber downy mildew (%), 3.125 mg/L, protectant activity): 100%
pest or weed control at 6.25 µg/mL (cucumber downy mildew; read-out: control effect against cucumber downy mildew (%), 6.25 mg/L, protectant activity): 100%
pest or weed control at 12.5 µg/mL (cucumber downy mildew; read-out: control effect against cucumber downy mildew (%), 12.5 mg/L, protectant activity): 100%
pest or weed control at 25 µg/mL (cucumber downy mildew; protectant activity): 100%
pest or weed control at 50 µg/mL (cucumber downy mildew; protectant activity): 100%
pest or weed control at 100 µg/mL (cucumber downy mildew; protectant activity): 100%
pest or weed control at 400 µg/mL (cucumber downy mildew; protectant activity): 100%
pest or weed control at 6.25 ppm (cucumber downy mildew; read-out: protectant activity against cucumber downy mildew in vivo, 6.25 ppm): 100%
pest or weed control at 12.5 ppm (cucumber downy mildew; read-out: protectant activity against cucumber downy mildew in vivo, 12.5 ppm): 100%
pest or weed control at 25 ppm (cucumber downy mildew; read-out: protectant activity against cucumber downy mildew in vivo, 25 ppm): 100%
pest or weed control at 50 ppm (cucumber downy mildew; read-out: protectant activity against cucumber downy mildew in vivo, 50 ppm): 100%
pest or weed control at 100 ppm (cucumber downy mildew): 100%
pest or weed control at 400 ppm (cucumber downy mildew): 100%
